From publication PMC3302934 (Journal of Acquired Immune Deficiency Syndromes (1999), 2012)

Key:
KSHV = KSHV plasma viral load by quantitative real-time PCR; assay type: in vivo, human
[1] = tested on: cytochrome P450 3A4 (CYP3A4); conditions: cited from earlier work
HIV [2] = conditions: in culture; cited from earlier work
[3] = Safety and adverse event monitoring
Kaposi sarcoma [4] = experiment: Clinical response of KS to rapamycin; assay type: in vivo, human
Ki-67 = experiment: IHC of KS biopsies for Ki-67; assay type: in vivo, human; conditions: KS biopsies on treatment vs baseline
[5] = tested on: phospho-Akt (Ser473) and phospho-Akt (T308); experiment: IHC of KS biopsies for phospho-Akt; assay type: in vivo, human; conditions: KS biopsies on treatment vs baseline
Kaposi sarcoma [6] = conditions: HIV-uninfected renal allograft recipients; trough 6-10ng/ml; cited from earlier work
interleukin-6 (IL6) = experiment: Plasma IL6 by ELISA; assay type: in vivo, human; conditions: baseline median 8.22pg/ml
[7] = Rapamycin trough blood concentrations; assay type: in vivo, human
phospho-RPS6 (pRPS6) = experiment: IHC of KS biopsies for phospho-RPS6; assay type: in vivo, human
[8] = tested on: KSHV latency associated nuclear antigen (LANA); experiment: IHC of KS biopsies for KSHV LANA; assay type: in vivo, human; conditions: KS biopsies on treatment vs baseline
[9] = tested on: vascular endothelial growth factor (VEGF); experiment: Plasma VEGF by ELISA; assay type: in vivo, human
HIV [10] = experiment: HIV viral load monitoring; assay type: in vivo, human; conditions: during rapamycin treatment with ART
CD4 T-lymphocyte counts = experiment: CD4+ T-lymphocyte count monitoring; assay type: in vivo, human; conditions: 6 study participants with follow-up tests; median baseline 826
P-glycoprotein = conditions: cited from earlier work

In the case of `CO[C@H]1C[C@@H]2CC[C@@H](C)[C@@](O)(O2)C(=O)C(=O)N2CCCC[C@H]2C(=O)O[C@H]([C@H](C)C[C@@H]2CC[C@@H](O)[C@H](OC)C2)CC(=O)[C@H](C)/C=C(\C)[C@@H](O)[C@@H](OC)C(=O)[C@H](C)C[C@H](C)/C=C/C=C/C=C/1C` [rapamycin], the “changes in KSHV VL during rapamycin treatment” value (KSHV) is listed as “no significant changes”, the “median change in KSHV VL during treatment” value (KSHV; baseline median 214, P=0.156) is listed as -138.8 copies/ml and the “substrate status for CYP3A4” value [1] is listed as “substrate”. The “effect on HIV infectivity and transcription” value (HIV [2]) was “inhibits HIV infectivity and transcription in culture”, the “grade of most adverse events” value ([3]; all seven patients experienced adverse events) was “most were grade 1” and the serious adverse event ([3]; patient #4, Nevirapine ART) was “extensive grade 3 superficial vein thrombus requiring anticoagulation, considered possibly related to rapamycin”. The infectious adverse events ([3]; patient #5, pneumonia and dermatomal Herpes zoster) was 2 separate grade 2 infectious episodes without neutropenia, the infectious adverse events ([3]; patient #6, without neutropenia, resolved without treatment) was “grade 2 upper respiratory infection” and the overall tolerability ([3]; seven HIV-infected KS patients on ART, trough target 5-10 ng/mL) was “generally well tolerated”. For the same compound, the “number of patients with stable disease as best response” value (Kaposi sarcoma [4]; of seven) was “Three”, the “number of patients with partial KS response” value (Kaposi sarcoma [4]; of seven, all receiving PI/r regimens) was “Three” and the “Best Response of KS to Rapamycin” value (Kaposi sarcoma [4]; patient 001, Lopinavir/r ART, maintenance 0.2 mg biw) was “Partial”. The “Best Response of KS to Rapamycin” value (Kaposi sarcoma [4]; patient 002, Atazanavir/r ART, maintenance 0.2 mg biw) was “Partial”, the “Best Response of KS to Rapamycin” value (Kaposi sarcoma [4]; patient 003, Atazanavir/r ART, maintenance 0.3 mg tiw) was “Stable” and the “Best Response of KS to Rapamycin” value (Kaposi sarcoma [4]; patient 004, Nevirapine ART, maintenance 2.8 mg daily) was “Progression”. The “Best Response of KS to Rapamycin” value (Kaposi sarcoma [4]; patient 005, Lopinavir/r ART, maintenance 0.1 mg biw) was “Partial”, the “Best Response of KS to Rapamycin” value (Kaposi sarcoma [4]; patient 006, Efavirenz ART, maintenance 6.7 mg daily) was “Stable” and the “Best Response of KS to Rapamycin” value (Kaposi sarcoma [4]; patient 007, Efavirenz ART, maintenance 2.3 mg daily) was “Stable”. The response duration (Kaposi sarcoma [4]; three responding patients) was 43 to 50 weeks, the “time to partial KS response” value (Kaposi sarcoma [4]; three responding patients) was 3 to 9 weeks and the “changes in Ki-67 staining” value (Ki-67) was “no significant changes”. For the same compound, the “changes in Akt phosphorylation at T308 or Ser473” value [5] was “no significant changes”, the “KS outcome after change from cyclosporin A-based regimen to rapamycin” value (Kaposi sarcoma [6]) was “KS regressed” and the “changes in plasma IL6 concentrations during treatment” value (interleukin-6 (IL6)) was “No significant changes”. For the same compound, the “time for blood levels to decline to acceptable levels after stopping rapamycin” value ([7]; first patient, ritonavir-boosted lopinavir regimen, from 172ng/mL) was “three”, the concentration at 7 days ([7]; human, whole blood, oral, 2 mg) was 123 ng/mL and the concentration at 14 days ([7]; human, whole blood, oral, 2 mg) was 172 ng/mL. For the same compound, the “Maximum Rapamycin Trough Level by LCMSMS” value ([7]; patient 001, Lopinavir/r ART, initial 2 mg daily) was 172 ng/mL, the “Maximum Rapamycin Trough Level by LCMSMS” value ([7]; patient 002, Atazanavir/r ART, initial 0.3 mg biw) was 64.4 ng/mL and the “Maximum Rapamycin Trough Level by LCMSMS” value ([7]; patient 003, Atazanavir/r ART, initial 0.3 mg biw) was 16.8 ng/mL. For the same compound, the “Maximum Rapamycin Trough Level by LCMSMS” value ([7]; patient 004, Nevirapine ART, initial 4.9 mg daily) was 13.1 ng/mL, the “Maximum Rapamycin Trough Level by LCMSMS” value ([7]; patient 005, Lopinavir/r ART, initial 0.4 mg biw) was 19.2 ng/mL and the “Maximum Rapamycin Trough Level by LCMSMS” value ([7]; patient 006, Efavirenz ART, initial 4.5 mg daily) was 7.4 ng/mL. For the same compound, the “Maximum Rapamycin Trough Level by LCMSMS” value ([7]; patient 007, Efavirenz ART, initial 3.7 mg daily) was 11.9 ng/mL, the “overall changes from baseline in staining scores (pRPS6, phospho-Akt)” value (phospho-RPS6 (pRPS6); on-treatment KS biopsies, all patients, score 0 to 4) was “no significant changes” and the “pRPS6 reactivity within KS tumor cells and overlying epithelium” value (phospho-RPS6 (pRPS6); subject #5, after 50 days on drug vs baseline) was “decreased pRPS6 reactivity”. For the same compound, the “pRPS6 staining compared to baseline” value (phospho-RPS6 (pRPS6); three of four subjects biopsied at day 50 or later, all on PI/r-based ART) was “decreased pRPS6 staining”, the “changes in LANA staining” value [8] was “no significant changes” and the “changes in plasma VEGF concentrations during treatment” value [9] was “No significant changes”. The “changes in HIV VL” value (HIV [10]) was “no consistent changes”, the “CD4 counts during treatment” value (CD4 T-lymphocyte counts) was over 400 cells/μL and the “substrate status for P-glycoprotein” value (P-glycoprotein) was “substrate”.
